Patent publication US6355799B1, “Substituted benzene compounds, process for their preparation, and herbicidal and defoliant compositions containing them” (ISK Americas Incorporated, priority 1997, dated 2002)

How the values were obtained:
Format in all cases: in vivo
[1] = tested on: barnyardgrass (Echinochloa crus-galli, ECHCG); assay: Pre-emerge test, greenhouse herbicide activity screening; settings: for Pre-emerge Herbicidal Activity ECHCG: phytotoxicity rating 0-100, 14 days after application; for phytotoxicity rating ECHCG: pre-emerge, 14 days after application, rating scale 0-100
Outline: (§1)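 Visual ratings on a 0-100 scale (0 no damage, 100 all plants dead) were taken at 14 days after treatment. Rates of 15-1000 g ai/ha in acetone, 187 l/ha, were sprayed onto soil one day after planting (pre-emerge) or onto 2-3 leaf plants with 0.25% v/v surfactant (post-emerge).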

[2] = tested on: green foxtail (Setaria viridis, SETVI); assay: as above; settings: for Pre-emerge Herbicidal Activity SETVI: phytotoxicity rating 0-100, 14 days after application; for phytotoxicity rating SETVI: pre-emerge, 14 days after application, rating scale 0-100
Outline: as §1

[3] = tested on: velvetleaf (Abutilon theophrasti, ABUTH); assay: as above; settings: for Pre-emerge Herbicidal Activity ABUTH: phytotoxicity rating 0-100, 14 days after application; for phytotoxicity rating ABUTH: pre-emerge, 14 days after application, rating scale 0-100
Outline: as §1

[4] = tested on: ivyleaf morningglory (Ipomoea hederacea, IPOHE); assay: as above; settings: for Pre-emerge Herbicidal Activity IPOHE: phytotoxicity rating 0-100, 14 days after application; for phytotoxicity rating IPOHE: pre-emerge, 14 days after application, rating scale 0-100
Outline: as §1

[5] = tested on: sicklepod (Cassia obtusifolia, CASOB); assay: as above; settings: for Pre-emerge Herbicidal Activity CASOB: phytotoxicity rating 0-100, 14 days after application; for phytotoxicity rating CASOB: pre-emerge, 14 days after application, rating scale 0-100
Outline: as §1

[6] = tested on: johnsongrass (Sorghum halepense, SORHA); assay: as above; settings: for Pre-emerge Herbicidal Activity SORHA: phytotoxicity rating 0-100, 14 days after application; for phytotoxicity rating SORHA: pre-emerge, 14 days after application, rating scale 0-100
Outline: as §1

[7] = tested on: lambsquarters (Chenopodium album, CHEAL); assay: as above; settings: for Pre-emerge Herbicidal Activity CHEAL: phytotoxicity rating 0-100, 14 days after application; for phytotoxicity rating CHEAL: pre-emerge, 14 days after application, rating scale 0-100
Outline: as §1

[8] = tested on: large crabgrass (Digitaria sanguinalis, DIGSA); assay: as above; settings: for Pre-emerge Herbicidal Activity DIGSA: phytotoxicity rating 0-100, 14 days after application; for phytotoxicity rating DIGSA: pre-emerge, 14 days after application, rating scale 0-100
Outline: as §1

[9] = tested on: field corn (Zea mays L., var. Dekalb 535, CORN); assay: Pre-emerge test, crop safety; settings: for Pre-emerge Herbicidal Activity CORN: crop damage rating 0-100, 14 days after application; for phytotoxicity rating CORN: pre-emerge, 14 days after application, rating scale 0-100
Outline: (§2)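 Applied at 15–1000 g ai/ha from acetone in 187 l/ha spray volume. Post-emergence applications included 0.25% v/v non-ionic surfactant and reached plants sown 8–21 days before. Pre-emergence applications were incorporated by surface watering. Efficacy or crop damage was rated on a 0–100 scale after 14 days.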

[10] = tested on: upland rice (Oryza sp., var. Tebonnet, RICE); assay: Pre-emerge test, crop safety; settings: for Pre-emerge Herbicidal Activity RICE: crop damage rating 0-100, 14 days after application; for phytotoxicity rating RICE: pre-emerge, 14 days after application, rating scale 0-100
Outline: as §2

[11] = tested on: redroot pigweed (Amaranthus retroflexus, AMARE); assay: Pre-emerge test, greenhouse herbicide activity screening; settings: for Pre-emerge Herbicidal Activity AMARE: phytotoxicity rating 0-100, 14 days after application; for phytotoxicity rating AMARE: pre-emerge, 14 days after application, rating scale 0-100
Outline: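 Rating: 0–100 visual injury, 14 DAA. Application: acetone, 187 l/ha, 15–1000 g ai/ha, flat-fan track sprayer with nozzle 40–45 cm above soil or canopy. Post-emerge runs used 0.25% v/v surfactant on 2–3 leaf plants.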

[12] = tested on: barnyardgrass (Echinochloa crus-galli, ECHCG); assay: Post-emerge test, greenhouse herbicide activity screening; settings: 14 days after application; for phytotoxicity rating ECHCG: post-emerge, rating scale 0-100; for Post-emerge Herbicidal Activity, phytotoxicity rating ECHCG: rating scale 0-100 (0 no damage, 100 complete death)
Outline: (§3)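 Sandy loam pots; pre-emerge: sown 1 d pre-spray, surface-watered after, then bottom-watered. Post-emerge: sown 8–21 d before, 2–3 leaf stage, + 0.25% v/v NIS, bottom-watered. Acetone, 187 l/ha track spray, 15–1000 g ai/ha. 0–100 injury score, day 14.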

[13] = tested on: green foxtail (Setaria viridis, SETVI); assay: as above; settings: 14 days after application; for phytotoxicity rating SETVI: post-emerge, rating scale 0-100; for Post-emerge Herbicidal Activity, phytotoxicity rating SETVI: rating scale 0-100 (0 no damage, 100 complete death)
Outline: as §3

[14] = tested on: velvetleaf (Abutilon theophrasti, ABUTH); assay: as above; settings: 14 days after application; for phytotoxicity rating ABUTH: post-emerge, rating scale 0-100; for Post-emerge Herbicidal Activity, phytotoxicity rating ABUTH: rating scale 0-100 (0 no damage, 100 complete death)
Outline: as §3

[15] = tested on: ivyleaf morningglory (Ipomoea hederacea, IPOHE); assay: as above; settings: 14 days after application; for phytotoxicity rating IPOHE: post-emerge, rating scale 0-100; for Post-emerge Herbicidal Activity, phytotoxicity rating IPOHE: rating scale 0-100 (0 no damage, 100 complete death)
Outline: as §3

[16] = tested on: sicklepod (Cassia obtusifolia, CASOB); assay: as above; settings: 14 days after application; for phytotoxicity rating CASOB: post-emerge, rating scale 0-100; for Post-emerge Herbicidal Activity, phytotoxicity rating CASOB: rating scale 0-100 (0 no damage, 100 complete death)
Outline: as §3

[17] = tested on: redroot pigweed (Amaranthus retroflexus, AMARE); assay: as above; settings: 14 days after application; for phytotoxicity rating AMARE: post-emerge
Outline: as §3

[18] = tested on: johnsongrass (Sorghum halepense, SORHA); assay: as above; settings: 14 days after application; for phytotoxicity rating SORHA: post-emerge, rating scale 0-100; for Post-emerge Herbicidal Activity, phytotoxicity rating SORHA: rating scale 0-100 (0 no damage, 100 complete death)
Outline: as §3

[19] = tested on: large crabgrass (Digitaria sanguinalis, DIGSA); assay: as above; settings: 14 days after application; for phytotoxicity rating DIGSA: post-emerge, rating scale 0-100; for Post-emerge Herbicidal Activity, phytotoxicity rating DIGSA: rating scale 0-100 (0 no damage, 100 complete death)
Outline: as §3

[20] = tested on: field corn (Zea mays L., var. Dekalb 535, CORN); assay: Post-emerge test, crop safety; settings: 14 days after application; for phytotoxicity rating CORN (crop damage): post-emerge, rating scale 0-100; for Post-emerge phytotoxicity rating CORN (crop damage): rating scale 0-100 (0 no damage, 100 complete death)
Outline: as §1

[21] = tested on: upland rice (Oryza sp., var. Tebonnet, RICE); assay: Post-emerge test, crop safety; settings: 14 days after application; for phytotoxicity rating RICE (crop damage): post-emerge, rating scale 0-100; for Post-emerge phytotoxicity rating RICE (crop damage): rating scale 0-100 (0 no damage, 100 complete death)
Outline: as §1

CCOC(=O)C(C)Oc1c(Cl)cc(F)c(-n2c(=O)cc(C(F)(F)F)n(C)c2=O)c1NC(=O)c1ccc2ccccc2c1 (stereo not drawn) [2-191]
Pre-emerge Herbicidal Activity ECHCG ([1]; 63 g ai/ha): 0 | Pre-emerge Herbicidal Activity ECHCG ([1]; 250 g ai/ha): 10 | Pre-emerge Herbicidal Activity SETVI ([2]; 63 g ai/ha): 40 | Pre-emerge Herbicidal Activity SETVI ([2]; 250 g ai/ha): 80 | Pre-emerge Herbicidal Activity ABUTH ([3]; 63 g ai/ha): 80 | Pre-emerge Herbicidal Activity ABUTH ([3]; 250 g ai/ha): 100 | Pre-emerge Herbicidal Activity IPOHE ([4]; 63 g ai/ha): 10 | Pre-emerge Herbicidal Activity IPOHE ([4]; 250 g ai/ha): 40 | Pre-emerge Herbicidal Activity CASOB ([5]; 63 g ai/ha): 10 | Pre-emerge Herbicidal Activity CASOB ([5]; 250 g ai/ha): 30 | Pre-emerge Herbicidal Activity SORHA ([6]; 63 g ai/ha): 0 | Pre-emerge Herbicidal Activity SORHA ([6]; 250 g ai/ha): 50 | Pre-emerge Herbicidal Activity CHEAL ([7]; 63 g ai/ha): 100 | Pre-emerge Herbicidal Activity CHEAL ([7]; 250 g ai/ha): 100 | Pre-emerge Herbicidal Activity DIGSA ([8]; 63 g ai/ha): 0 | Pre-emerge Herbicidal Activity DIGSA ([8]; 250 g ai/ha): 70 | Pre-emerge Herbicidal Activity CORN ([9]; 63 g ai/ha): 0 | Pre-emerge Herbicidal Activity CORN ([9]; 250 g ai/ha): 0 | Pre-emerge Herbicidal Activity RICE ([10]; 63 g ai/ha): 10 | Pre-emerge Herbicidal Activity RICE ([10]; 250 g ai/ha): 20 | Pre-emerge Herbicidal Activity AMARE ([11]; 63 g ai/ha): 100 | Pre-emerge Herbicidal Activity AMARE ([11]; 250 g ai/ha): 100 | phytotoxicity rating ECHCG ([12]; 63 g ai/ha): 0 | phytotoxicity rating ECHCG ([12]; 250 g ai/ha): 0 | phytotoxicity rating SETVI ([13]; 63 g ai/ha): 0 | phytotoxicity rating SETVI ([13]; 250 g ai/ha): 10 | phytotoxicity rating ABUTH ([14]; 63 g ai/ha): 70 | phytotoxicity rating ABUTH ([14]; 250 g ai/ha): 90 | phytotoxicity rating IPOHE ([15]; 63 g ai/ha): 80 | phytotoxicity rating IPOHE ([15]; 250 g ai/ha): 100 | phytotoxicity rating CASOB ([16]; 63 g ai/ha): 30 | phytotoxicity rating CASOB ([16]; 250 g ai/ha): 80 | phytotoxicity rating AMARE ([17]; 63 g ai/ha, rating scale 0-100 (0 no damage, 100 complete death)): 40 | phytotoxicity rating AMARE ([17]; 250 g ai/ha, rating scale 0-100): 90 | phytotoxicity rating SORHA ([18]; 63 g ai/ha): 0 | phytotoxicity rating SORHA ([18]; 250 g ai/ha): 0 | phytotoxicity rating DIGSA ([19]; 63 g ai/ha): 0 | phytotoxicity rating DIGSA ([19]; 250 g ai/ha): 0 | phytotoxicity rating CORN (crop damage) ([20]; 63 g ai/ha): 10 | phytotoxicity rating CORN (crop damage) ([20]; 250 g ai/ha): 20 | phytotoxicity rating RICE (crop damage) ([21]; 63 g ai/ha): 10 | phytotoxicity rating RICE (crop damage) ([21]; 250 g ai/ha): 20

CCOC(=O)C(Cl)Cc1cc(Cl)cc(F)c1-n1nc(C)n(C(F)F)c1=O (stereo not drawn) [14-52]
phytotoxicity rating ECHCG ([1]; 63 g ai/ha): 0 | phytotoxicity rating ECHCG ([1]; 250 g ai/ha): 0 | phytotoxicity rating SETVI ([2]; 63 g ai/ha): 0 | phytotoxicity rating SETVI ([2]; 250 g ai/ha): 0 | phytotoxicity rating ABUTH ([3]; 63 g ai/ha): 70 | phytotoxicity rating ABUTH ([3]; 250 g ai/ha): 100 | phytotoxicity rating IPOHE ([4]; 63 g ai/ha): 0 | phytotoxicity rating IPOHE ([4]; 250 g ai/ha): 30 | phytotoxicity rating CASOB ([5]; 63 g ai/ha): 0 | phytotoxicity rating CASOB ([5]; 250 g ai/ha): 0 | phytotoxicity rating SORHA ([6]; 63 g ai/ha): 0 | phytotoxicity rating SORHA ([6]; 250 g ai/ha): 0 | phytotoxicity rating CHEAL ([7]; 63 g ai/ha): 80 | phytotoxicity rating CHEAL ([7]; 250 g ai/ha): 100 | phytotoxicity rating DIGSA ([8]; 63 g ai/ha): 0 | phytotoxicity rating DIGSA ([8]; 250 g ai/ha): 0 | phytotoxicity rating CORN ([9]; 63 g ai/ha): 0 | phytotoxicity rating CORN ([9]; 250 g ai/ha): 0 | phytotoxicity rating RICE ([10]; 63 g ai/ha): 0 | phytotoxicity rating RICE ([10]; 250 g ai/ha): 0 | phytotoxicity rating AMARE ([11]; 63 g ai/ha): 40 | phytotoxicity rating AMARE ([11]; 250 g ai/ha): 90 | Post-emerge Herbicidal Activity, phytotoxicity rating ECHCG ([12]; Rate 63 g ai/ha): 0 | Post-emerge Herbicidal Activity, phytotoxicity rating ECHCG ([12]; Rate 250 g ai/ha): 10 | Post-emerge Herbicidal Activity, phytotoxicity rating SETVI ([13]; Rate 63 g ai/ha): 0 | Post-emerge Herbicidal Activity, phytotoxicity rating SETVI ([13]; Rate 250 g ai/ha): 0 | Post-emerge Herbicidal Activity, phytotoxicity rating ABUTH ([14]; Rate 63 g ai/ha): 90 | Post-emerge Herbicidal Activity, phytotoxicity rating ABUTH ([14]; Rate 250 g ai/ha): 100 | Post-emerge Herbicidal Activity, phytotoxicity rating IPOHE ([15]; Rate 63 g ai/ha): 100 | Post-emerge Herbicidal Activity, phytotoxicity rating IPOHE ([15]; Rate 250 g ai/ha): 100 | Post-emerge Herbicidal Activity, phytotoxicity rating CASOB ([16]; Rate 63 g ai/ha): 0 | Post-emerge Herbicidal Activity, phytotoxicity rating CASOB ([16]; Rate 250 g ai/ha): 70 | Post-emerge Herbicidal Activity, phytotoxicity rating AMARE ([17]; Rate 63 g ai/ha, rating scale 0-100 (0 no damage, 100 complete death)): 20 | Post-emerge Herbicidal Activity, phytotoxicity rating AMARE ([17]; Rate 250 g ai/ha, rating scale 0-100 (0 no damage, 100 complete death)): 50 | Post-emerge Herbicidal Activity, phytotoxicity rating SORHA ([18]; Rate 63 g ai/ha): 0 | Post-emerge Herbicidal Activity, phytotoxicity rating SORHA ([18]; Rate 250 g ai/ha): 0 | Post-emerge Herbicidal Activity, phytotoxicity rating DIGSA ([19]; Rate 63 g ai/ha): 0 | Post-emerge Herbicidal Activity, phytotoxicity rating DIGSA ([19]; Rate 250 g ai/ha): 0 | Post-emerge phytotoxicity rating CORN (crop damage) ([20]; Rate 63 g ai/ha): 0 | Post-emerge phytotoxicity rating CORN (crop damage) ([20]; Rate 250 g ai/ha): 10 | Post-emerge phytotoxicity rating RICE (crop damage) ([21]; Rate 63 g ai/ha): 0 | Post-emerge phytotoxicity rating RICE (crop damage) ([21]; Rate 250 g ai/ha): 0
